Data taken from ChEMBL document CHEMBL1122374 (J Med Chem, 1983).

Key:
[1] = molecular target: T1, Adenosine deaminase (Bos taurus, UniProt P56658); assay: In vitro inhibition of adenosine deaminase in calf intestinal mucosa; assay type: tissue-based
T1 sequence (P56658 whole entry): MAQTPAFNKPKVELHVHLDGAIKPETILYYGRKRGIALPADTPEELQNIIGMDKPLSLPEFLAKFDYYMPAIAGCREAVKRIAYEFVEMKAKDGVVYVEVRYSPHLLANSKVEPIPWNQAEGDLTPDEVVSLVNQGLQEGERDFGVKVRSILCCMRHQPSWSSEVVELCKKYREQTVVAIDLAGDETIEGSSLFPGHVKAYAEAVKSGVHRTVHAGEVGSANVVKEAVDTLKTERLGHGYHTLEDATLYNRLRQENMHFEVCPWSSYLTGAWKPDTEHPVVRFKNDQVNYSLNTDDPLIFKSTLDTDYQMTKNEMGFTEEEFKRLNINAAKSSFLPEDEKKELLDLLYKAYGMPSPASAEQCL

[2] = molecular target: T2, Adenosine deaminase (Homo sapiens, UniProt P00813); assay: The compound was tested in vitro for inhibition of human erythrocytic adenosine deaminase
T2 sequence (P00813 whole entry): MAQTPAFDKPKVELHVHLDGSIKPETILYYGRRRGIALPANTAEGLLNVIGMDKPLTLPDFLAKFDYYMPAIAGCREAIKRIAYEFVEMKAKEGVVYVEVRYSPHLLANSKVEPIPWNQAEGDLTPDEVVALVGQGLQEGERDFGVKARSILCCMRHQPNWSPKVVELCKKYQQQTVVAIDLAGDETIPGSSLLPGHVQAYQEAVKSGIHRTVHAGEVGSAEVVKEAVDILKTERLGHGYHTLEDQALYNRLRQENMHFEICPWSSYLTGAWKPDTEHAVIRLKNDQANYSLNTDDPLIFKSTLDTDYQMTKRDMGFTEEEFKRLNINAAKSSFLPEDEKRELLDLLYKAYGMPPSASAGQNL

SMILES	Ki [1] [nM]	Ki [2] [nM]
OCCOCn1cnc2c1NC=NCC2O (stereo not drawn)	98	
CC1=NC[C@@H](O)c2ncn([C@H]3C[C@H](O)[C@@H](CO)O3)c2N1	16	
OC[C@H]1O[C@@H](n2cnc3c2N=CNC[C@H]3O)[C@H](O)[C@@H]1O [COFORMYCIN]		0.01
